Experimental data reported in the Kinase Knowledgebase extract (Sharma et al. 2016).

Assays:
CDK2 (human) [1] = molecular target: CDK2 (human) (UniProt P24941); experiment: Enzyme Assay
CDK2 (human) [2] = molecular target: CDK2 (human) (UniProt P24941); experiment: Enzyme Assay; remark: listed apart in the source

Row | Compound | IC50 (CDK2 (human) [1]) [µM] | IC50 (CDK2 (human) [2]) [µM]
1 | CN(C)C1CCN(c2ccc(Nc3nc(N)c(C(=O)c4ccc([N+](=O)[O-])cc4)s3)cc2)CC1 | 10 | 10
2 | Nc1nc(Nc2ccc(N3CCC(N4CCCC(O)C4)CC3)cc2)sc1C(=O)c1ccc(Cl)cc1 (stereo not given) | 10 | 10
3 | NC(=O)c1cc(C(=O)c2sc(Nc3ccc(N4CCC(N5CCCC5)CC4)cc3)nc2N)ccc1O | 10 | 10

These reach a lower IC50 (CDK2 (human) [1]). Values come first.

Row | IC50 (CDK2 (human) [1]) [µM] | IC50 (CDK2 (human) [2]) [µM] | Compound
4 | 1.45 | 1.45 | Nc1nc(Nc2ccc(N3CCC(N4CCCC(O)C4)CC3)cc2)sc1C(=O)c1ccc2c(c1)OCCO2 (stereo not given)
5 | 1.01 | 1.01 | CCNC1CCN(c2ccc(Nc3nc(N)c(C(=O)c4cccc(F)c4)s3)cc2)CC1
